Experimental data reported in the supplement of paper PMC13380429.

Tests used:
[1] = system: Vero E6; test: relative viability EC50 (midpoint between 100% and the lowest measured viability); higher = less toxic; settings: 72 h
[2] = system: Calu-3; test: as above; settings: 72 h
[3] = system: Caco-2; test: as above; settings: 72 h
[4] = system: U2OS; test: as above; settings: 72 h
[5] = system: Vero E6; test: drug sensitivity score (DSS) for viability; higher = more toxic; extreme values may be limits of the assay; settings: 72 h
[6] = system: HepG2; test: as above; settings: 72 h
[7] = system: Calu-3; test: as above; settings: 72 h
[8] = system: Caco-2; test: as above; settings: 72 h
[9] = system: U2OS; test: as above; settings: 72 h
[10] = system: A549-ACE2 infected with SARS-CoV-2; test: morphology score (similarity to uninfected cells); higher = more like uninfected cells; settings: 24 h
[11] = system: A549-ACE2 infected with SARS-CoV-2; test: SARS-CoV-2 infection rate relative to DMSO; higher = more infection; settings: 24 h
[12] = system: Vero E6; test: cell viability relative to DMSO; higher = less toxic; settings: 72 h
[13] = system: HepG2; test: as above; settings: 72 h
[14] = system: Calu-3; test: as above; settings: 72 h
[15] = system: Caco-2; test: as above; settings: 72 h
[16] = system: U2OS; test: as above; settings: 72 h
[17] = system: A549-ACE2 infected with SARS-CoV-2; test: cell count relative to DMSO; higher = less toxic; settings: 24 h
[18] = system: A549-ACE2; test: drug-induced phospholipidosis relative to tamoxifen; higher = more phospholipidosis
[19] = system: A549-ACE2; test: phospholipidosis EC50; higher = less potent phospholipidosis inducer; settings: 24 h
[20] = system: HepG2; test: relative viability EC50 (midpoint between 100% and the lowest measured viability); higher = less toxic; settings: 72 h

Cc1ccc(CNc2ncnc3ccc(-c4ccc(CO)o4)cc23)o1 [ML167]
Settings	drug sensitivity score	relative viability EC50 [µM]
[1]	–	> 10
[2]	–	> 10
[3]	–	> 10
[4]	–	> 10
[5]	0	–
[6]	2.3	–
[7]	1.2	–
[8]	1.2	–
[9]	0	–

Settings	SARS-CoV-2 infection rate, [11] [%]	cell count, [17] [%]	cell viability, [12] [%]	cell viability, [13] [%]	cell viability, [14] [%]	cell viability, [15] [%]	cell viability, [16] [%]	morphology score, [10]
1 nM	–	–	104	94.8	102	106	102	–
10 nM	–	–	105	102	91.5	97.3	99.7	–
100 nM	–	–	95	99.2	98.1	110	106	–
0.3 µM	98	99	–	–	–	–	–	0.14
1000 nM	–	–	96.5	93.5	85	84.8	97.7	–
3 µM	92	111	–	–	–	–	–	0.35
10 µM	89	103	–	–	–	–	–	0.47
10000 nM	–	–	89.1	70.5	83	93.6	99.9	–
30 µM	72	99	–	–	–	–	–	0.52

drug-induced phospholipidosis [%], [18]
Settings	0.3 µM	0.833333 µM	3.33333 µM	6.66667 µM	10 µM	30 µM
24 h	2.53	0.81	-3.37	5.92	6.99	19.4
48 h	1.66	-0.31	-4.24	1.31	3.46	12.6
72 h	1.51	-4.06	-1.11	-0.124	2.4	14.2

COc1cc(COc2cc(N)c(Cl)cc2C(=O)CCC2CCN(CCNS(C)(=O)=O)CC2)cc(OC)c1
Settings	drug sensitivity score	phospholipidosis EC50 [µM]	relative viability EC50 [µM]
[1]	–	–	2.74
[2]	–	–	> 10
[3]	–	–	> 10
[5]	4.4	–	–
[6]	2.1	–	–
[7]	0	–	–
[8]	0	–	–
[9]	2	–	–
[19]	–	10.8	–

Settings	SARS-CoV-2 infection rate, [11] [%]	cell count, [17] [%]	cell viability, [12] [%]	cell viability, [13] [%]	cell viability, [14] [%]	cell viability, [15] [%]	cell viability, [16] [%]	morphology score, [10]
1 nM	–	–	96.8	95	99	107	98.8	–
10 nM	–	–	97.8	102	106	102	96.2	–
0.1 µM	106	97	–	–	–	–	–	-0.18
100 nM	–	–	93.3	98.8	94.6	95.9	100	–
0.3 µM	102	102	–	–	–	–	–	-0.13
1 µM	93	105	–	–	–	–	–	0.08
1000 nM	–	–	96.1	92.5	105	110	101	–
3 µM	69	118	–	–	–	–	–	0.56
10000 nM	–	–	29.4	73.1	98.6	88.3	58.7	–

drug-induced phospholipidosis [%], [18]
Settings	0.3 µM	0.833333 µM	3.33333 µM	6.66667 µM	10 µM	30 µM
24 h	7	-3.07	1.58	15.2	28.5	59.3
48 h	8.74	0.25	7.6	19.6	29.2	–
72 h	9.15	2.57	12.6	21.2	34.8	–

O=C1CC2(CCCC2)CC(=O)N1CCNC[C@H]1COc2ccccc2O1
Settings	drug sensitivity score	relative viability EC50 [µM]
[1]	–	> 10
[2]	–	> 10
[3]	–	> 10
[4]	–	> 10
[5]	0	–
[6]	0	–
[7]	0	–
[8]	0	–
[9]	0	–
[20]	–	> 10

cell viability [%]
Settings	[12]	[13]	[14]	[15]	[16]
1 nM	99.4	108	92.5	95.4	103
10 nM	101	108	107	89	97
100 nM	106	93.2	98.4	99.9	97.2
1000 nM	92.6	110	107	98.5	96.3
10000 nM	97.8	98.3	96.3	101	101

CC(CN(C)C)CN1c2ccccc2CCc2ccccc21 (stereo unspecified) [trimipramine]
Settings	drug sensitivity score	relative viability EC50 [µM]
[1]	–	> 10
[2]	–	> 10
[3]	–	> 10
[4]	–	> 10
[5]	0	–
[6]	0	–
[7]	0	–
[8]	0	–
[9]	0	–
[20]	–	> 10

cell viability [%]
Settings	[12]	[13]	[14]	[15]	[16]
1 nM	103	103	92.3	95.6	98.7
10 nM	101	104	101	87.1	96.4
100 nM	97.6	94.3	105	98	102
1000 nM	96.8	101	105	102	98.1
10000 nM	89.8	89.7	89.4	93.7	97.1

CC(C)CCC[C@@H](C)[C@H]1CC[C@H]2[C@@H]3CCC4=CC(=NO)CC[C@]4(C)[C@H]3CC[C@]12C [olesoxime]
Settings	drug sensitivity score	relative viability EC50 [µM]
[1]	–	> 10
[2]	–	> 10
[3]	–	> 10
[4]	–	> 10
[5]	0	–
[6]	0	–
[7]	0	–
[8]	0	–
[9]	0	–
[20]	–	> 10

cell viability [%]
Settings	[12]	[13]	[14]	[15]	[16]
1 nM	97.2	100	97.3	99.2	101
10 nM	98.6	96.5	95.6	87.1	95.9
100 nM	96.5	95.3	90.7	102	98
1000 nM	98.6	103	100	97.6	95.3
10000 nM	94.3	97.4	93.9	99.1	100
